Source: ChEMBL document CHEMBL4390652, “Design, biological evaluation and X-ray crystallography of nanomolar multifunctional ligands targeting simultaneously acetylcholinesterase and glycogen synthase kinase-3” (Eur J Med Chem, 2019)

Columns and labels:
[1] = molecular target: Cyclin-dependent kinase-like 2 (Homo sapiens) (UniProt Q92772); assay: Binding affinity to wild-type human partial length CDKL2 (M1 to D327 residues) expressed in bacterial expression system assessed as residual binding level at 10 uM by Kinomescan method relative to control
Cyclin-dependent kinase-like 2 (Homo sapiens), sequence (Q92772 whole entry, the tested form may be a part): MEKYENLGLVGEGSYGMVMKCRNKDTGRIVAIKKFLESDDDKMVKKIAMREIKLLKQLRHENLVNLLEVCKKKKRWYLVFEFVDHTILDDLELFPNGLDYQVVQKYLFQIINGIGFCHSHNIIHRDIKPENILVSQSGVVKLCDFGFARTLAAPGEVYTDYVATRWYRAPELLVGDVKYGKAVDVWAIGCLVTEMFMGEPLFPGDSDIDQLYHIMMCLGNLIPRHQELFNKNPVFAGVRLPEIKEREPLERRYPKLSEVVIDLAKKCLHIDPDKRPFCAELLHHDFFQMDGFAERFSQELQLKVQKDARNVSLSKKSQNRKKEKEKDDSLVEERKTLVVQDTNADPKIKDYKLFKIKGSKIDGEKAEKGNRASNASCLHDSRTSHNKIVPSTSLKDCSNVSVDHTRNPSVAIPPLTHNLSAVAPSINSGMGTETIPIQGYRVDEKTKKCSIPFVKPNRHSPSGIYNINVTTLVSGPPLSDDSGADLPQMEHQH

[2] = molecular target: Ribosomal protein S6 kinase alpha-5 (Homo sapiens) (UniProt O75582); assay: Binding affinity to wild-type human partial length N-terminal RPS6KA5 kinase domain 1 expressed in bacterial expression system assessed as residual binding level at 10 uM by Kinomescan method relative to control
[3] = molecular target: 5'-AMP-activated protein kinase catalytic subunit alpha-1 (Homo sapiens) (UniProt Q13131); assay: Binding affinity to wild-type human partial length AMPK alpha1 (M1 to E306 residues) expressed in bacterial expression system assessed as residual binding level at 10 uM by Kinomescan method relative to control
[4] = molecular target: LIM domain kinase 2 (Homo sapiens) (UniProt P53671); assay: Binding affinity to wild-type human full length LIMK2 (M1 to P638 residues) expressed in bacterial expression system assessed as residual binding level at 10 uM by Kinomescan method relative to control
[5] = molecular target: Cyclin-dependent kinase 3 (Homo sapiens) (UniProt Q00526); assay: Binding affinity to wild-type human full length CDK3 (M1 to H305 residues) expressed in bacterial expression system assessed as residual binding level at 10 uM by Kinomescan method relative to control
[6] = molecular target: Receptor-type tyrosine-protein kinase FLT3 (Homo sapiens) (UniProt P36888); assay: Binding affinity to wild-type human partial length FLT3 (V592 to Y969 residues) expressed in bacterial expression system assessed as residual binding level at 10 uM by Kinomescan method relative to control
[7] = molecular target: MAP kinase-interacting serine/threonine-protein kinase 2 (Homo sapiens) (UniProt Q9HBH9); assay: Binding affinity to wild-type human partial length MKNK2 (G63 to S388 residues) expressed in mammalian expression system assessed as residual binding level at 10 uM by Kinomescan method relative to control
[8] = molecular target: Ribosomal protein S6 kinase alpha-1 (Homo sapiens) (UniProt Q15418); assay: Binding affinity to wild-type human partial length N-terminal RSK1 Kinase domain 1 (M1 to E388 residues) expressed in bacterial expression system assessed as residual binding level at 10 uM by Kinomescan method relative to control
[9] = system: Receptor-type tyrosine-protein kinase FLT3 (Homo sapiens), P36888 [UNDEFINED MUTATION]; assay: Binding affinity to human partial length FLT3 ITD mutant expressed in bacterial expression system assessed as residual binding level at 10 uM by Kinomescan method relative to control
Receptor-type tyrosine-protein kinase FLT3 (Homo sapiens), P36888 [UNDEFINED MUTATION], sequence (P36888 whole entry, looked up, stated change not applied, the tested form may be a part): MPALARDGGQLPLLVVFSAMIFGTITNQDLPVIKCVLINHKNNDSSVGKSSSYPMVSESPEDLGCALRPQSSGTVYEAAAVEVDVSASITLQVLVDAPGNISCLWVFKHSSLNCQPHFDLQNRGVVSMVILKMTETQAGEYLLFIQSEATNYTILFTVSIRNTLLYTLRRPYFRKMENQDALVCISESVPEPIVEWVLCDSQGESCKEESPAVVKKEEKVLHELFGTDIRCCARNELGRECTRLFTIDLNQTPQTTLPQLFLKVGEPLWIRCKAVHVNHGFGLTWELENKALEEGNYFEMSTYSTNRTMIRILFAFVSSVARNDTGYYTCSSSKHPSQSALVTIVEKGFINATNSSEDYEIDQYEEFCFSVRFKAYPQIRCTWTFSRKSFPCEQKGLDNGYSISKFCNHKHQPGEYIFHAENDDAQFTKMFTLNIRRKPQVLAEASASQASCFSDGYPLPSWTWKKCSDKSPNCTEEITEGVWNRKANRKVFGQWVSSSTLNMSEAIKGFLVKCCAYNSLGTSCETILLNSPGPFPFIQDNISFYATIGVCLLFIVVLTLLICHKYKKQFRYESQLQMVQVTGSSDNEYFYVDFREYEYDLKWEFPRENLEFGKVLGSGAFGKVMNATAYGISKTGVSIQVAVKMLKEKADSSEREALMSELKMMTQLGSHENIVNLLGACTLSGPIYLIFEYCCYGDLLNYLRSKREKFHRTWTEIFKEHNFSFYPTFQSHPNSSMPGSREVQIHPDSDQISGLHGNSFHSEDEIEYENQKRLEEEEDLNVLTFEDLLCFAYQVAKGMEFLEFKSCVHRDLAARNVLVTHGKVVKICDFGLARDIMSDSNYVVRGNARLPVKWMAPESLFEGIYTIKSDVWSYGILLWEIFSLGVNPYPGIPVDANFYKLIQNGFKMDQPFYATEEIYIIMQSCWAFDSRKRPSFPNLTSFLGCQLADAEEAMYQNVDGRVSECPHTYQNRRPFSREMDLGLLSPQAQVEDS

[10] = molecular target: Discoidin domain-containing receptor 2 (Homo sapiens) (UniProt Q16832); assay: Binding affinity to wild-type human partial length DDR2 (V555 to E855 residues) expressed in mammalian expression system assessed as residual binding level at 10 uM by Kinomescan method relative to control
[11] = molecular target: Activin receptor type-1B (Homo sapiens) (UniProt P36896); assay: Binding affinity to wild-type human ACVR1B (S187 to I505 residues) expressed in bacterial expression system assessed as residual binding level at 10 uM by Kinomescan method relative to control
[12] = system: Receptor-type tyrosine-protein kinase FLT3 (Homo sapiens), P36888 [UNDEFINED MUTATION]; assay: Binding affinity to human partial length FLT3 ITD/D835V double mutant expressed in bacterial expression system assessed as residual binding level at 10 uM by Kinomescan method relative to control
[13] = molecular target: TGF-beta receptor type-1 (Homo sapiens) (UniProt P36897); assay: Binding affinity to wild-type human partial length TGFBR1 (D179 to M503 residues) expressed in bacterial expression system assessed as residual binding level at 10 uM by Kinomescan method relative to control
[14] = molecular target: Serine/threonine-protein kinase Nek6 (Homo sapiens) (UniProt Q9HC98); assay: Binding affinity to wild-type human full length NEK6 (M8 to T313 residues) expressed in bacterial expression system assessed as residual binding level at 10 uM by Kinomescan method relative to control
Serine/threonine-protein kinase Nek6 (Homo sapiens), sequence (Q9HC98 whole entry, the tested form may be a part): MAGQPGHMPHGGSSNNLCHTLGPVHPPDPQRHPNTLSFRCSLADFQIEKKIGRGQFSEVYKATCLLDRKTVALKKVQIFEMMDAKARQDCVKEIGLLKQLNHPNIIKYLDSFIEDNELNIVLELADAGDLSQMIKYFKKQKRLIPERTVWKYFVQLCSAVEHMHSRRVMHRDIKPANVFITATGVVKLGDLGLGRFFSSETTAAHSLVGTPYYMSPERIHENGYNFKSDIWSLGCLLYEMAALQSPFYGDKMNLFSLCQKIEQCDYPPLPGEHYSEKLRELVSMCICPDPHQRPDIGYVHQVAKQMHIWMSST

[15] = molecular target: Activin receptor type-2B (Homo sapiens) (UniProt Q13705); assay: Binding affinity to wild-type human ACVR2B (H169 to D504 residues) expressed in bacterial expression system assessed as residual binding level at 10 uM by Kinomescan method relative to control
[16] = molecular target: SRSF protein kinase 1 (Homo sapiens) (UniProt Q96SB4); assay: Binding affinity to wild-type human full length SRPK1 (M1 to S655 residues) expressed in bacterial expression system assessed as residual binding level at 10 uM by Kinomescan method relative to control
[17] = molecular target: Myotonin-protein kinase (Homo sapiens) (UniProt Q09013); assay: Binding affinity to wild-type human partial length DMPK (V47 to V415 residues) expressed in bacterial expression system assessed as residual binding level at 10 uM by Kinomescan method relative to control
Myotonin-protein kinase (Homo sapiens), sequence (Q09013 whole entry, the tested form may be a part): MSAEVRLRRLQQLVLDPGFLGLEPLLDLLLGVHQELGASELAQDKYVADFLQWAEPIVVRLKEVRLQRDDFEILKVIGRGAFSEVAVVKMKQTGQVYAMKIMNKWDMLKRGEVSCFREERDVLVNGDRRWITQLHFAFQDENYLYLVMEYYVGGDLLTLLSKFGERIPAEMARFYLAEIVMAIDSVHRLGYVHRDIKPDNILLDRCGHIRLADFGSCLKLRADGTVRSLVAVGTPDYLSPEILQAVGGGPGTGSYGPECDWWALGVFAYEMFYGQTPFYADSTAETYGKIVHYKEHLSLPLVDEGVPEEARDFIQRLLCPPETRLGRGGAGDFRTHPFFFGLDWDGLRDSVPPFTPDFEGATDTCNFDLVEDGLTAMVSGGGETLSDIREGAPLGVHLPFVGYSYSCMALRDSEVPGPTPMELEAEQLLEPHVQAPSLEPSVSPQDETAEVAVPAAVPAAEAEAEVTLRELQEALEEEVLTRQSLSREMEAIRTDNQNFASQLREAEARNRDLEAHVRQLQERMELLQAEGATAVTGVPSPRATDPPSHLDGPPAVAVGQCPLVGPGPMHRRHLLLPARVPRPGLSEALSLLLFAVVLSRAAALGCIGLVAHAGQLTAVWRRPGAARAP

[18] = molecular target: MAP kinase-activated protein kinase 2 (Homo sapiens) (UniProt P49137); assay: Binding affinity to wild-type human partial length MAPKAPK2 (V48 to D345 residues) expressed in bacterial expression system assessed as residual binding level at 10 uM by Kinomescan method relative to control
MAP kinase-activated protein kinase 2 (Homo sapiens), sequence (P49137 whole entry, looked up, the tested form may be a part): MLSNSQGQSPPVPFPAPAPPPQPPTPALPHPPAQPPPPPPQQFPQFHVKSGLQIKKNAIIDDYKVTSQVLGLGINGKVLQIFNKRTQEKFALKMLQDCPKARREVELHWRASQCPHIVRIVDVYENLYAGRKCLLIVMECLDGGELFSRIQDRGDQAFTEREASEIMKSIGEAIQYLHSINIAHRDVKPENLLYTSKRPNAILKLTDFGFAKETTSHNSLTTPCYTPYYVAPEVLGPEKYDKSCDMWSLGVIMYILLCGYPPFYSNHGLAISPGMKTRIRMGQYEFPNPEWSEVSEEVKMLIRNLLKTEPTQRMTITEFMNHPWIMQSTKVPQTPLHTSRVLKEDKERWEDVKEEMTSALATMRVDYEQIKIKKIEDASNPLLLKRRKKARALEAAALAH

[19] = molecular target: Tyrosine-protein kinase Lyn (Homo sapiens) (UniProt P07948); assay: Binding affinity to wild-type human partial length LYN (C219 to Q511 residues) expressed in bacterial expression system assessed as residual binding level at 10 uM by Kinomescan method relative to control
[20] = molecular target: ALK tyrosine kinase receptor (Homo sapiens) (UniProt Q9UM73); assay: Binding affinity to wild-type human partial length ALK (I1088 to E1409 residues) expressed in mammalian expression system assessed as residual binding level at 10 uM by Kinomescan method relative to control
ALK tyrosine kinase receptor (Homo sapiens), sequence (Q9UM73 19-1620 limits assumed): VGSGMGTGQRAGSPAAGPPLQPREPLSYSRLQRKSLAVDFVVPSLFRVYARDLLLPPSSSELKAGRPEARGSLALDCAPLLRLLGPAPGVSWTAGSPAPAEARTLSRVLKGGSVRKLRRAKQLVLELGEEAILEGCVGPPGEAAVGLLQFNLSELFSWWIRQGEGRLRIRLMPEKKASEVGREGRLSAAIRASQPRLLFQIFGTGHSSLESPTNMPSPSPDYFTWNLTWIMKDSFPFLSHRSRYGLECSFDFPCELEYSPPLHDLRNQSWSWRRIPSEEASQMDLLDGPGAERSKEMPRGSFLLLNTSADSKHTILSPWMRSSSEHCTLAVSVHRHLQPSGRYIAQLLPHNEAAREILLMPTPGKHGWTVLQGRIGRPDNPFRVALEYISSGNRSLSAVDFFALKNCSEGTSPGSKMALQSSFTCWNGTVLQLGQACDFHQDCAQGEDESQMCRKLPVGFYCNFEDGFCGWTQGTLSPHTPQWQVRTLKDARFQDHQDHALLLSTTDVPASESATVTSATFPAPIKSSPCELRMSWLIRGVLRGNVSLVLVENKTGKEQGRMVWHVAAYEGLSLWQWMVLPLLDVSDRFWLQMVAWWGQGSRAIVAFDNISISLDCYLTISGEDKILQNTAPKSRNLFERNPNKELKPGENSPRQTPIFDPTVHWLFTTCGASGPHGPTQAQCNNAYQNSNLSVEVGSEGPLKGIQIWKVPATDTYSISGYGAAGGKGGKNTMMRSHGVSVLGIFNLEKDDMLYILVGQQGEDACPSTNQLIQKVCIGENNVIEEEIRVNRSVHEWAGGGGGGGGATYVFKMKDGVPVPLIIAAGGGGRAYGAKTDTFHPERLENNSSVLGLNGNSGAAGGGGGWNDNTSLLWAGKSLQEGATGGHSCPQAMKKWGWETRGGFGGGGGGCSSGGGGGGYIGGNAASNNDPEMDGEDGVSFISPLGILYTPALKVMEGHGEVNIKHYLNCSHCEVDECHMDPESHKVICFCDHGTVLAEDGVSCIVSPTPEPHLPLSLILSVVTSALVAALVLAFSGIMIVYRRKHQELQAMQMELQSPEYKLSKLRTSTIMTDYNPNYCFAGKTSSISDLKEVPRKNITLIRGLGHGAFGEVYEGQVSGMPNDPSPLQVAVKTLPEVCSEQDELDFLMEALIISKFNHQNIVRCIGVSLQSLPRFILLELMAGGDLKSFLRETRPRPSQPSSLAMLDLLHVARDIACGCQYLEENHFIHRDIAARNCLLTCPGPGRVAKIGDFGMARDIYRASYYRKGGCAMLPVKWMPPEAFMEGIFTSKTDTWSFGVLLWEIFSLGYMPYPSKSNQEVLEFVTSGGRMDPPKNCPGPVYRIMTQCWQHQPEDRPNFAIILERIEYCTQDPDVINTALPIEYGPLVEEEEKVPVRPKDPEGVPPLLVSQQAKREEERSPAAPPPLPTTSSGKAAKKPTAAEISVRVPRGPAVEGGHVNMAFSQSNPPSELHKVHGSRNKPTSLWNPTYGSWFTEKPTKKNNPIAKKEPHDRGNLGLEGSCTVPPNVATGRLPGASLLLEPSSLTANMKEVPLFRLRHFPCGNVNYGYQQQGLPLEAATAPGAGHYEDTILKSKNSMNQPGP

[21] = molecular target: Tyrosine-protein kinase Fgr (Homo sapiens) (UniProt P09769); assay: Binding affinity to wild-type human partial length FGR (L233 to T529 residues) expressed in bacterial expression system assessed as residual binding level at 10 uM by Kinomescan method relative to control
Tyrosine-protein kinase Fgr (Homo sapiens), sequence (P09769 2-529 limits assumed): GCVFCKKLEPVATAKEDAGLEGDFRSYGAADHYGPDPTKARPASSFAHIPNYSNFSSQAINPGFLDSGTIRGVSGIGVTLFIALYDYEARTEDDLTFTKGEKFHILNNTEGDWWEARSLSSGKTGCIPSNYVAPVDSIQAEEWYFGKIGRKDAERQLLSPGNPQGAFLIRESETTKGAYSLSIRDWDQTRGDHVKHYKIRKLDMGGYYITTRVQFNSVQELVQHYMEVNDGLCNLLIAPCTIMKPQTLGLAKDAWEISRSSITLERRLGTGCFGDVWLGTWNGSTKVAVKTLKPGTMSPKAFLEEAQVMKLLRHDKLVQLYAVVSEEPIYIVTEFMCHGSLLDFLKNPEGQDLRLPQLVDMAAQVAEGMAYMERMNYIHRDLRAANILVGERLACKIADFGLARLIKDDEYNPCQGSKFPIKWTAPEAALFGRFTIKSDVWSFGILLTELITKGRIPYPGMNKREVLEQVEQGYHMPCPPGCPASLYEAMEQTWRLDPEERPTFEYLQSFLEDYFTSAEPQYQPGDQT

[22] = molecular target: Myosin light chain kinase (Homo sapiens) (UniProt Q32MK0); assay: Binding affinity to wild-type human partial length MLCK (D488 to K800 residues) expressed in bacterial expression system assessed as residual binding level at 10 uM by Kinomescan method relative to control
[23] = system: MDA-MB-231; assay: Cytotoxicity against human MDA-MB-231 cells assessed as growth inhibition incubated for 48 hrs by Hoechst 33342 staining based assay; format: cell-based; conditions: MDA-MB-231, 48 h
[24] = molecular target: 5'-AMP-activated protein kinase catalytic subunit alpha-2 (Homo sapiens) (UniProt P54646); assay: Binding affinity to wild-type human partial length AMPK alpha2 (M1 to E306 residues) expressed in bacterial expression system assessed as residual binding level at 10 uM by Kinomescan method relative to control
[25] = molecular target: Uncharacterized serine/threonine-protein kinase SBK3 (Homo sapiens) (UniProt P0C264); assay: Binding affinity to wild-type human partial length SgK110 (L22 to R329 residues) expressed in bacterial expression system assessed as residual binding level at 10 uM by Kinomescan method relative to control

O=C(Nc1cc(-c2cn(CCNc3c4c(nc5ccccc35)CCCC4)nn2)ccn1)Nc1cccc2c1C1CCCCN1C2=O (racemic)
Activity [1]: 0.1% | Activity [2]: 55% | Activity [3]: 31% | Activity [4]: 60% | Activity [5]: 90% | Activity [6]: 0.55% | Activity [7]: 72% | Activity [8]: 3.9% | Activity [9]: 1% | Activity [10]: 4.2% | Activity [11]: 67% | Activity [12]: 0.23% | Activity [13]: 74% | Activity [14]: 28% | Activity [15]: 100% | Activity [16]: 8.2% | Activity [17]: 18% | Activity [18]: 100% | Activity [19]: 83% | Activity [20]: 100% | Activity [21]: 97% | Activity [22]: 0.35% | IC50 [23]: 2000 nM | Activity [24]: 15% | Activity [25]: 100%
